Measured values: patent US9688654B2, “Compounds inhibiting leucine-rich repeat kinase enzyme activity” (Merck Sharp & Dohme Corp., priority 2013, dated 2017)
Values belong to the compound of their own block, whether it stands above or below them.

Columns and labels:
Type in all cases: biochemical
[1] = biological target: T1, LRRK2 (G2019S mutation, GST-LRRK2 (amino acids 970-2527)) (Homo sapiens, UniProt Q5S007, G2019S); experiment: LRRK2 Km ATP LanthaScreen Assay; settings: mean IC50
T1 construct: GST-LRRK2 (amino acids 970-2527); GST (N); purchased Life Technologies Corporation
T1 sequence (Q5S007 970-2527 G2019S): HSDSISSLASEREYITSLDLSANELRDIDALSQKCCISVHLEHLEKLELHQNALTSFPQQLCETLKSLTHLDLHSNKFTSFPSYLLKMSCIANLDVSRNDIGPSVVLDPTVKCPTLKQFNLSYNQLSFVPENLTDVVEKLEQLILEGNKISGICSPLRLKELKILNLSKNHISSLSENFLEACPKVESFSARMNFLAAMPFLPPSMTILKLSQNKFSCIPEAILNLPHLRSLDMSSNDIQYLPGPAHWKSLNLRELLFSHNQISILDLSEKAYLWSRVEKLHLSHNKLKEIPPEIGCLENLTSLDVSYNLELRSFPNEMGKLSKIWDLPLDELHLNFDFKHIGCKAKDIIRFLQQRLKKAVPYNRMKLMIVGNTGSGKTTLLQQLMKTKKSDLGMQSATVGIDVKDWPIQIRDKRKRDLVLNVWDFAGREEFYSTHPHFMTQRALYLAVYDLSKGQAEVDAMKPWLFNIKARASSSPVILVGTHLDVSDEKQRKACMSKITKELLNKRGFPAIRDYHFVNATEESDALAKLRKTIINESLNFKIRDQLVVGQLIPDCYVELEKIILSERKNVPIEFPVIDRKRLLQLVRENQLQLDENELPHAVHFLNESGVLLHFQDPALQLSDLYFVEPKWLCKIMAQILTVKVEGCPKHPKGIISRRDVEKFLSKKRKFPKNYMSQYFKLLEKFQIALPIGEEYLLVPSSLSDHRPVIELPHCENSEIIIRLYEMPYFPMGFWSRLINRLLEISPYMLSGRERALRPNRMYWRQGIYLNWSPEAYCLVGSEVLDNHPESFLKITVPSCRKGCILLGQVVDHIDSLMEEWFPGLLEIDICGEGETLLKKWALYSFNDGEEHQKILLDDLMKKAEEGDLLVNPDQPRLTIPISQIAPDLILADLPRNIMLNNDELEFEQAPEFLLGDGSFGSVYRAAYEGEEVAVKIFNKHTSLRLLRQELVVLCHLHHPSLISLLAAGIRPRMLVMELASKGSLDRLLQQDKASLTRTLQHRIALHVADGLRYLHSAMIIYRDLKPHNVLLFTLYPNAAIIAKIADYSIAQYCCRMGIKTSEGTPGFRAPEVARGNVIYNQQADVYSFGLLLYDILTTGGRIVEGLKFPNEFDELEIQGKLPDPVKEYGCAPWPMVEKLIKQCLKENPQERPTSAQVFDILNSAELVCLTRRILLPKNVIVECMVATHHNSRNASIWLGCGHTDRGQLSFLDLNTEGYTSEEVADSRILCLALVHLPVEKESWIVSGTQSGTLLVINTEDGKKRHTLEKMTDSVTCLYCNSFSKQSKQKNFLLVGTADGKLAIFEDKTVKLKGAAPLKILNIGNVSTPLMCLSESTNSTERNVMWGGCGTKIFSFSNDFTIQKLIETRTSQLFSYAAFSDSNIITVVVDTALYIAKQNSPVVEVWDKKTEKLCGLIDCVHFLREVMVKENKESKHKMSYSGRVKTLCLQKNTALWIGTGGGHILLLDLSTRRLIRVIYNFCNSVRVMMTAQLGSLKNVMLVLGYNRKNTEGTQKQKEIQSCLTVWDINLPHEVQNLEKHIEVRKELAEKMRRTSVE
Method: Unless otherwise noted, all LRRK2 IC50 data presented in tables refers to the LRRK2 Km ATP LanthaScreen™ Assay that is described in the Biological Assay section.
The data presented for the 5 mM and Km ATP LanthaScreen™ Assay represents mean IC50 values based on several test results and may have reasonable. deviations depending on the specific conditions and reagents used. Reagents for the LRRK2 5 mM and Km ATP LanthaScreen™ Assay were purchased from Life Technologies Corporation.
• a) 400 nl of a 1:2.15 serial dilution of test compound (98 μM top assay concentration) is spotted via Labcyte Echo to certain wells in a 384 well black, untreated plate. Control wells contain 400 nl of either DMSO or 400 nl of a known inhibitor in DMSO. • b) 10 μl of a 2.5 nM LRRK2 (G2019S mutation, GST-LRRK2 (amino acids 970-2527)) enzyme solution in 1× assay buffer (50 mM Tris pH 8.5, 10 mM MgCl2, 0.01% Brij-35, 1.0 mM EGTA, 2 mM DTT, 0.05 mM NaVO4) is added to all wells. • c) A 30 minute room temperature incubation is followed by addition of 10 μl […]) After a 35 minute room temperature incubation, 20 μl of TR-FRET Dilution Buffer (Invitrogen PV3756B) containing 4 nM Tb-labeled anti-phospho LRRKtide antibody and 20 mM EDTA is added to all wells. • e) Plates are incubated at room temperature for 1 hour and read on an Envision™ multi-mode plate reader with LanthaScreen™ settings. Results are analysed using Assay Data Analyzer. […] Results are analysed using Assay Data Analyzer.

[2] = biological target: T2, JAK3 (Homo sapiens, UniProt P52333); experiment: Kinase selectivity, Z'-LYTE platform; settings: 1 micromolar compound, read-out: percent inhibition JAK3
T2 construct: purchased Life Technologies Corporation
T2 sequence (P52333 1-1124): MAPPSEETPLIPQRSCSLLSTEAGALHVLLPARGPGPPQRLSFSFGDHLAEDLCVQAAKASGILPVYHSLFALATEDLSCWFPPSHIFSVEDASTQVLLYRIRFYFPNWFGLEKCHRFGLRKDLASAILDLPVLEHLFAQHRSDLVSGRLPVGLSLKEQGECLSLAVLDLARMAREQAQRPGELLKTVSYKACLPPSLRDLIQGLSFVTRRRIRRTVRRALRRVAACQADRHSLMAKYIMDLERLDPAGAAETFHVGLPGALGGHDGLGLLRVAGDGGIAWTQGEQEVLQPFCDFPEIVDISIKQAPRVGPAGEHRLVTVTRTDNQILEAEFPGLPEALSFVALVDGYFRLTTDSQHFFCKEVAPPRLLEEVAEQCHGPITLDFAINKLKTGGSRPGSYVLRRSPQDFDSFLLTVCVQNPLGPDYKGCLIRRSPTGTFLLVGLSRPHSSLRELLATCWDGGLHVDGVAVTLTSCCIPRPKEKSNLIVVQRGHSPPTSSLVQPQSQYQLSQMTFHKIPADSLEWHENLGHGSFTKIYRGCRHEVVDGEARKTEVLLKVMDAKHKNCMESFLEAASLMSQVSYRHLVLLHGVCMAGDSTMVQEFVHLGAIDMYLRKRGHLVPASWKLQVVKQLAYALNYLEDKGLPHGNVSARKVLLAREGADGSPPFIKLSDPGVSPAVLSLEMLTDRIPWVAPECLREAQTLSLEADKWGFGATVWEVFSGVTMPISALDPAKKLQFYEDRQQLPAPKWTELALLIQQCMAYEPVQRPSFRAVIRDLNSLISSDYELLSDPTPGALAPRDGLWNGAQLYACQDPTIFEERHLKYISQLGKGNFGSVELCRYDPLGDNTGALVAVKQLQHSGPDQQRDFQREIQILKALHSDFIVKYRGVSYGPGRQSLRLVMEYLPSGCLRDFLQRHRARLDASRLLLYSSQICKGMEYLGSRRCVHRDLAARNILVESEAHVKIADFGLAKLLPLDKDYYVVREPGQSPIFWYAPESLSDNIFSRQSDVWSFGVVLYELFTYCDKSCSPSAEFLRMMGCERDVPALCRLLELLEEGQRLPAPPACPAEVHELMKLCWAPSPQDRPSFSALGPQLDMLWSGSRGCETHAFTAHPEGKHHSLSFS

[3] = biological target: T3, CLK2 (Homo sapiens, UniProt P49760); experiment: Kinase selectivity, Z'-LYTE platform; settings: 1 micromolar compound, read-out: percent inhibition CLK2
T3 construct: purchased Life Technologies Corporation
T3 sequence (P49760 whole entry): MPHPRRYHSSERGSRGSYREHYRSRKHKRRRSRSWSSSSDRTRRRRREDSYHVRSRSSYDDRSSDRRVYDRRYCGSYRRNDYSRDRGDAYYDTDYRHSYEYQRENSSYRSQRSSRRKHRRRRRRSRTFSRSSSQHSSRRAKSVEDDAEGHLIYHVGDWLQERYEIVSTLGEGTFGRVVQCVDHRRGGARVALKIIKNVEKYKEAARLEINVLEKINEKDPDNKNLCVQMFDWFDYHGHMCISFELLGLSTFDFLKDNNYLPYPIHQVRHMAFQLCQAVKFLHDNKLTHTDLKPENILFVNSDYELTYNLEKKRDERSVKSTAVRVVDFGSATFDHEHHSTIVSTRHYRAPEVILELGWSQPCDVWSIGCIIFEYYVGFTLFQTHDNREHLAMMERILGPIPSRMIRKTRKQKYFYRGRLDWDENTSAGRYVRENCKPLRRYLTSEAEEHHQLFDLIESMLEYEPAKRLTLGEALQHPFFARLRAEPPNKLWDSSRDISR

[4] = biological target: T4, MAPK8 (JNK1) (Homo sapiens, UniProt P45983); experiment: Kinase selectivity, Z'-LYTE platform; settings: 1 micromolar compound, read-out: percent inhibition MAPK8 (JNK1)
T4 construct: purchased Life Technologies Corporation

[5] = biological target: T5, MAPK1 (ERK2) (Homo sapiens, UniProt P28482); experiment: Kinase selectivity, Z'-LYTE platform; settings: 1 micromolar compound, read-out: percent inhibition MAPK1 (ERK2)
T5 construct: purchased Life Technologies Corporation
T5 sequence (P28482 whole entry): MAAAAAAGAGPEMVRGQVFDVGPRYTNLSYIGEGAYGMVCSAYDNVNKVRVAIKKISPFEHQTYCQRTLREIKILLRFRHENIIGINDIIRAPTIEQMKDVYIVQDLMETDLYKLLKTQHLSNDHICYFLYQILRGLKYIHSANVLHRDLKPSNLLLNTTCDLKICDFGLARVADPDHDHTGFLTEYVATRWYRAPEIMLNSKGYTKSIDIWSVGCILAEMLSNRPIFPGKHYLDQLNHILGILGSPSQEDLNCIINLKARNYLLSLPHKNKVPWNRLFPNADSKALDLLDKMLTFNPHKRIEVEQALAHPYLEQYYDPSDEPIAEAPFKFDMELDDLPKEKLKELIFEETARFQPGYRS

[6] = biological target: T6, IRAK1 (Homo sapiens, UniProt P51617); experiment: Kinase selectivity, Adapta platform; settings: 1 micromolar compound, read-out: percent inhibition IRAK1
T6 construct: purchased Life Technologies Corporation
T6 sequence (P51617 whole entry): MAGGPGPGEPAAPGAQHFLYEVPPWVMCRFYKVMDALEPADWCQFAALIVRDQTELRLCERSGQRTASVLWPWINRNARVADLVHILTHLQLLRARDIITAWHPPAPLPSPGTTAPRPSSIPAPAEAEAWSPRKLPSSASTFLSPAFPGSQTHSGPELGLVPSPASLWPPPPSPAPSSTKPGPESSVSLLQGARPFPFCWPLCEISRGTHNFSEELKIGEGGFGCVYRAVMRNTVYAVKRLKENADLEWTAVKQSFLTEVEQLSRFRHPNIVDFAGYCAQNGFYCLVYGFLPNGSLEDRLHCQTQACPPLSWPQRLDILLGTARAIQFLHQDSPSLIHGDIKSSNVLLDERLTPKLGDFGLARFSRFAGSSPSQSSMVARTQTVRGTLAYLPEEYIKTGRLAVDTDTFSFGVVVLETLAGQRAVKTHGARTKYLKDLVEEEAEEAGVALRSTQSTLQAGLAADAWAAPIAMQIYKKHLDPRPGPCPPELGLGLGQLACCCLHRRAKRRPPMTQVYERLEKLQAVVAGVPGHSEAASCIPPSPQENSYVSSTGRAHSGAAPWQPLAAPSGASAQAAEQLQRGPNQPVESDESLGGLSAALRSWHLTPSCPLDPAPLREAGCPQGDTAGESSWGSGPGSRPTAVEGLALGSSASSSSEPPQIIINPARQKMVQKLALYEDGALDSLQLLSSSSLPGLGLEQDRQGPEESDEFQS

[7] = biological target: T7, CDK1/cyclin B (Homo sapiens, UniProt P06493); experiment: Kinase selectivity, Z'-LYTE platform; settings: 1 micromolar compound, read-out: percent inhibition CDK1/cyclin B
T7 construct: purchased Life Technologies Corporation

[8] = biological target: T8, AURKB (Aurora B) (Homo sapiens, UniProt Q96GD4); experiment: Kinase selectivity, Z'-LYTE platform; settings: 1 micromolar compound, read-out: percent inhibition AURKB (Aurora B)
T8 construct: purchased Life Technologies Corporation
T8 sequence (Q96GD4 whole entry): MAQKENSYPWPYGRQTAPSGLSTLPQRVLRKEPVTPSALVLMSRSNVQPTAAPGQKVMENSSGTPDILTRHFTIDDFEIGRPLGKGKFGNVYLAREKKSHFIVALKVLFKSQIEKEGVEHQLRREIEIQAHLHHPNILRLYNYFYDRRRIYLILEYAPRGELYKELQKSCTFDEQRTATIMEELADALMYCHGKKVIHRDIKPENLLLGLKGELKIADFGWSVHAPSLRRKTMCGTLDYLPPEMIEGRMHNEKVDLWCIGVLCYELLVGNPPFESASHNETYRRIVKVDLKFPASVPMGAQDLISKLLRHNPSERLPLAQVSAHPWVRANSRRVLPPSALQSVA

[9] = biological target: T9, BRAF V599E (Homo sapiens, UniProt P15056, V600E); experiment: Kinase selectivity, Z'-LYTE platform; settings: 1 micromolar compound, read-out: percent inhibition BRAF V599E
T9 construct: purchased Life Technologies Corporation
T9 sequence (P15056 whole entry V600E): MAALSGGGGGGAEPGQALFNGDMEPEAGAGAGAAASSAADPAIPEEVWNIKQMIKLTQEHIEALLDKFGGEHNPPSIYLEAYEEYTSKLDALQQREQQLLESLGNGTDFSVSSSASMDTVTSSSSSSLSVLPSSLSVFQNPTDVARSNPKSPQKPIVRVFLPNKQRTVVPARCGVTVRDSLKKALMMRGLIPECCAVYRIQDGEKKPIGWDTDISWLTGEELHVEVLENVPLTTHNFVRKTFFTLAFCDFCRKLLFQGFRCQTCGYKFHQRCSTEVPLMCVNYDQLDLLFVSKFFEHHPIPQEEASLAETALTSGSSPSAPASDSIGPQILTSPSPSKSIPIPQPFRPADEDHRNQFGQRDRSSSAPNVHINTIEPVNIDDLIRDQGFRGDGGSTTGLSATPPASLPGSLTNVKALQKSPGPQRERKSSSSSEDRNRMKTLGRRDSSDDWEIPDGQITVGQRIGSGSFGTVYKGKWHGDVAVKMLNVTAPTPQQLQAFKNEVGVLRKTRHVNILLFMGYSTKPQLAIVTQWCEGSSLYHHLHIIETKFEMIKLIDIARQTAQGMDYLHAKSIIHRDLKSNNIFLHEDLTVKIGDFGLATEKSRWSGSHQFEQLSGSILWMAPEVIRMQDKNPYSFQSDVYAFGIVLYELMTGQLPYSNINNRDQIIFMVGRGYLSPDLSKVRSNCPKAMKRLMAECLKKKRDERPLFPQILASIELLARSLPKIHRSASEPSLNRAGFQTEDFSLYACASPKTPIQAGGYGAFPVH

[10] = biological target: T10, CHEK2 (CHK2) (Homo sapiens, UniProt O96017); experiment: Kinase selectivity, Z'-LYTE platform; settings: 1 micromolar compound, read-out: percent inhibition CHEK2 (CHK2)
T10 construct: purchased Life Technologies Corporation
T10 sequence (O96017 whole entry): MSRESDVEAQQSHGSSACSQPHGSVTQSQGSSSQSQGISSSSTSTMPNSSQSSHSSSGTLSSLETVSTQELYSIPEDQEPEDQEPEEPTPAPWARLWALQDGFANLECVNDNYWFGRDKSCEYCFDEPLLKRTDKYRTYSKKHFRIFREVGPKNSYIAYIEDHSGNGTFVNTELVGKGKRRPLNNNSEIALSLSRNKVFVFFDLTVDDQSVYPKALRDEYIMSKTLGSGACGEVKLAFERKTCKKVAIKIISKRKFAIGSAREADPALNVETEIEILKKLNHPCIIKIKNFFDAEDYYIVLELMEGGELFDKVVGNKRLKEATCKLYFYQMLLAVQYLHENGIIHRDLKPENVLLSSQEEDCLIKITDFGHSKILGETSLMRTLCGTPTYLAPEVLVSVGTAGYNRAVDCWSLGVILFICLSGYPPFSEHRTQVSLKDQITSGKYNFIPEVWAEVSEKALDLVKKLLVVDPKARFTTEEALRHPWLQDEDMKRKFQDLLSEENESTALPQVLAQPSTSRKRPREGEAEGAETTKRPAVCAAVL

[11] = biological target: T11, DYRK1A (Homo sapiens, UniProt Q13627); experiment: Kinase selectivity, Z'-LYTE platform; settings: 1 micromolar compound, read-out: percent inhibition DYRK1A
T11 construct: purchased Life Technologies Corporation

- IC50 [1]: 2 nM
SMILES: CC1(Oc2ccc3[nH]nc(-c4ccnc(N5CC[C@@H](N)C5)c4)c3c2)CC1 [Example 36]

- IC50 [1]: 67 nM
SMILES: CC1(Oc2ccc3[nH]nc(-c4ccnc(N5C6CCC5COC6)c4)c3c2)CC1 [Example 5]

- IC50 [1]: 1 nM
SMILES: CN1CCN(c2cc(-c3n[nH]c4ccc(OC5(C)CC5)cc34)ccn2)CC1=O [Example 33]

- IC50 [1]: 0.6 nM
SMILES: CN1CCN(c2cc(-c3n[nH]c4ccc(OC5(C)CC5)cc34)ccn2)CC1 [Example 32]

- inhibition at 1 µM [2]: 46%
- IC50 [1]: 0.6 nM
- inhibition at 1 µM [3]: 53%
- inhibition at 1 µM [4]: 54%
- inhibition at 1 µM [5]: 18%
- inhibition at 1 µM [6]: 8%
- inhibition at 1 µM [7]: 26%
- inhibition at 1 µM [8]: 11%
- inhibition at 1 µM [9]: 18%
- inhibition at 1 µM [10]: 2%
- inhibition at 1 µM [11]: 4%
SMILES: C[C@@H]1CN(c2cc(-c3n[nH]c4ccc(OC5(C)CC5)cc34)ccn2)CCO1 [Example 29]

- inhibition at 1 µM [2]: 56%
- IC50 [1]: 0.6 nM
- inhibition at 1 µM [3]: 46%
- inhibition at 1 µM [4]: 61%
- inhibition at 1 µM [5]: 23%
- inhibition at 1 µM [6]: 18%
- inhibition at 1 µM [7]: 33%
- inhibition at 1 µM [8]: 15%
- inhibition at 1 µM [9]: 29%
- inhibition at 1 µM [10]: 14%
- inhibition at 1 µM [11]: 6%
SMILES: CC1(Oc2ccc3[nH]nc(-c4ccnc(N5CCOCC5)c4)c3c2)CC1 [Example 27]

- inhibition at 1 µM [2]: 37%
- IC50 [1]: 0.9 nM
- inhibition at 1 µM [3]: 49%
- inhibition at 1 µM [4]: 39%
- inhibition at 1 µM [5]: 10%
- inhibition at 1 µM [6]: -17%
- inhibition at 1 µM [7]: 9%
- inhibition at 1 µM [8]: 6%
- inhibition at 1 µM [9]: 5%
- inhibition at 1 µM [10]: 8%
- inhibition at 1 µM [11]: 3%
SMILES: C[C@@H]1CN(c2cc(-c3n[nH]c4ccc(OC5(C)CC5)cc34)ccn2)C[C@H](C)O1 [Example 30]

- IC50 [1]: 0.6 nM
SMILES: CC1(Oc2ccc3[nH]nc(-c4ccnc(N5CCN(S(C)(=O)=O)CC5)c4)c3c2)CC1 [Example 31]

- IC50 [1]: 0.7 nM
SMILES: C[C@H]1[C@H](O)[C@@H](O)CN1c1cc(-c2n[nH]c3ccc(OC4(C)CC4)cc23)ccn1 [Example 34]

- IC50 [1]: 1.1 nM
SMILES: C[C@H]1[C@H](N)[C@@H](O)CN1c1cc(-c2n[nH]c3ccc(OC4(C)CC4)cc23)ccn1 [Example 35]

- IC50 [1]: 23 nM
SMILES: CC1(Oc2ccc3[nH]nc(-c4ccnc(N5CC6CCC(C5)O6)c4)c3c2)CC1 [Example 4]

- IC50 [1]: 2.6 nM
SMILES: CC1(Oc2ccc3[nH]nc(-c4ccnc(N5CC[C@H](N)C5)c4)c3c2)CC1 [Example 37]

- inhibition at 1 µM [2]: 49%
- IC50 [1]: 0.6 nM
- inhibition at 1 µM [3]: 42%
- inhibition at 1 µM [4]: 58%
- inhibition at 1 µM [5]: 23%
- inhibition at 1 µM [6]: -5%
- inhibition at 1 µM [7]: 25%
- inhibition at 1 µM [8]: 11%
- inhibition at 1 µM [9]: 19%
- inhibition at 1 µM [10]: 4%
- inhibition at 1 µM [11]: 2%
SMILES: C[C@H]1CN(c2cc(-c3n[nH]c4ccc(OC5(C)CC5)cc34)ccn2)CCO1 [Example 28]

Second part, the compound before the results:

SMILES: CO[C@H]1CCN(c2cc(-c3n[nH]c4ccc(OC5CC5)cc34)ccn2)C1 [Example 22]
- IC50 [1]: 17 nM

SMILES: c1cc(-c2n[nH]c3ccc(OC4CC4)cc23)cc(N2CCC(n3cncn3)CC2)n1 [Example 12]
- IC50 [1]: 10 nM

SMILES: O[C@H]1CCN(c2cc(-c3n[nH]c4ccc(OC5CC5)cc34)ccn2)C1 [Example 24]
- IC50 [1]: 29 nM

SMILES: FC1(F)CCN(c2cc(-c3n[nH]c4ccc(OC5CC5)cc34)ccn2)C1 [Example 21]
- IC50 [1]: 19 nM

SMILES: CS(=O)(=O)N1CCCN(c2cc(-c3n[nH]c4ccc(OC5CC5)cc34)ccn2)CC1 [Example 17]
- IC50 [1]: 51 nM

SMILES: F[C@H]1CN(c2cc(-c3n[nH]c4ccc(OC5CC5)cc34)ccn2)C[C@@H]1F [Example 14]
- IC50 [1]: 19 nM

SMILES: [O-][S+]1CCCN(c2cc(-c3n[nH]c4ccc(OC5CC5)cc34)ccn2)CC1 (stereo not drawn) [Example 15]
- IC50 [1]: 44 nM

SMILES: c1cc(-c2n[nH]c3ccc(OC4CC4)cc23)cc(N2CCOC3(CC3)C2)n1 [Example 6]
- IC50 [1]: 17 nM

SMILES: FC1(F)CCN(c2cc(-c3n[nH]c4ccc(OC5CC5)cc34)ccn2)CC1 [Example 8]
- IC50 [1]: 30 nM

SMILES: FC1(F)CN(c2cc(-c3n[nH]c4ccc(OC5CC5)cc34)ccn2)C1 [Example 25]
- IC50 [1]: 40 nM

SMILES: c1cc(-c2n[nH]c3ccc(OC4CC4)cc23)cc(N2CCOCC2)n1 [Example 1]
- IC50 [1]: 40 nM

SMILES: CO[C@H]1CN(c2cc(-c3n[nH]c4ccc(OC5CC5)cc34)ccn2)C[C@@H]1O [Example 10]
- IC50 [1]: 23 nM

SMILES: c1cc(-c2n[nH]c3ccc(OC4COC4)cc23)cc(N2CCOCC2)n1 [Example 2]
- IC50 [1]: 20 nM

SMILES: Fc1cc2[nH]nc(-c3ccnc(N4CCOCC4)c3)c2cc1OC1CC1 [Example 3]
- IC50 [1]: 1.2 nM

SMILES: c1cc(-c2n[nH]c3ccc(OC4CC4)cc23)cc(N2CCc3oc(C4CC4)nc3C2)n1 [Example 19]
- IC50 [1]: 54 nM

SMILES: FC1(F)CCCN(c2cc(-c3n[nH]c4ccc(OC5CC5)cc34)ccn2)C1 [Example 20]
- IC50 [1]: 22 nM

SMILES: c1cnn(C2CCN(c3cc(-c4n[nH]c5ccc(OC6CC6)cc45)ccn3)CC2)c1 [Example 13]
- IC50 [1]: 16 nM

SMILES: O=S1(=O)CCCN(c2cc(-c3n[nH]c4ccc(OC5CC5)cc34)ccn2)CC1 [Example 16]
- IC50 [1]: 71 nM

SMILES: O=S1(=O)CC2CC(C1)N(c1cc(-c3n[nH]c4ccc(OC5CC5)cc34)ccn1)C2 (stereo not drawn) [Example 11]
- IC50 [1]: 111 nM
